Reference: paper PMC7013932, “Disulfide-Linked Peptides for Blocking BTLA/HVEM Binding” (International Journal of Molecular Sciences, 2020)
Positions of bridges follow the written chain, without caps; N, C: chain ends. Residues, ends and D or L forms follow the SMILES beside them.

What was measured:
293T cells = experiment: Toxicity on 293T cells (data not shown); type: cell-based, human; details: 5 mg/mL
Description: (§1) Then, we measured the cell death by counting the cells using trypan blue and by flow cytometry using 4′,6-diamidino-2-phenylindole dihydrochloride (DAPI).

BTLA protein = biological target: T1, BTLA protein (Homo sapiens, UniProt Q7Z6A9); experiment: SPR analysis of BTLA protein binding to immobilized HVEM (14–39) peptide
T1 construct: purchased Novoprotein C563
Experimental: To analyze the binding properties between BTLA and the HVEM (14–39) peptide, we performed the affinity measurements using SPR. Thus, the peptide extended by five glycine residues at the N-terminus and biotin was first immobilized on a streptavidin matrix-coated sensor chip. The BTLA protein was then injected at different concentrations (0, 1, 3, 5, 10, and 15 µM). […] Moreover, the SPR results reveal that the peptide binds approximately 8 times slower (k1 = 76400), and dissociates 36 times slower (k−1 = 0.00332) than does the HVEM protein (k1 = 620000 and k−1 = 0.12), which agrees with the theoretical results of simulations with crystal-based structure and NMR-based structure of the peptide (Table 1).
Figure 6 SPR analysis of the BTLA protein binding to the HVEM (14–39) peptide. Sensorgrams show the results of SPR analysis conducted on the binding of the indicated concentrations of BTLA protein (C = 0, 1, 3, 5, 10, and 15 μM) in HBS-EP buffer.
Recombinant human BTLA protein was purchased from Novoprotein (company product code: C563). Recombinant human BTLA-Fc, HVEM-Fc and anti-human BTLA (#7.1)-blocking mAb were a generous gift from Prof. D. Olive (Inserm U1068/CNRS U7258, Marseille, France). Anti-HVEM mAb was biotinylated according to the manufacturer’s instructions (Biotin Labeling Kit-NH2, Abnova, #KA0003).
Standard SPR analyses were performed using a Biacore T200 (GE Healthcare) instrument essentially as described in the manufacturer’s manual. BTLA protein binding was studied using the HVEM(14–39) peptide elongated by five glycine residues at the N-terminus and immobilized on a streptavidin matrix-coated Sensor Chip SA (GE Healthcare). The peptide was immobilized on the sensor surface to yield a final value of ~1100 RU. HBS-EP (150 mM NaCl, 10 mM HEPES pH 7.4, 3 mM EDTA, 0.05% Surfactant P20) was used as the running buffer. In all the experiments, the buffer flow was set to 30 µL/min, with all injections at a volume of 120 µL. The sensorchip surface was regenerated with 0.5 M NaCl and 10 mM glycine. The data obtained were analyzed using Biacore T200 Evaluation Software 3.1 (Biacore, GE Healthcare, USA). The results are presented as sensorgrams obtained after subtraction of the background response signal from control experiments with buffer injections.

[1] = test system: peripheral blood mononuclear cells (PBMC); type: cell-based, human; details: PBMC from 3 healthy donors; peptide 0.1 and 5 mg/ml; 6 and 24 h, 37 °C; trypan blue counting and DAPI flow cytometry
Experimental: as §1
Blood samples were also collected from healthy volunteers through the local Swiss blood bank. Fresh peripheral blood mononuclear cells were purified by density gradient centrifugation (Isopaque-Ficoll) within 2 h after blood sampling. Cells were cryopreserved in RPMI medium 1640 supplemented with 40% FCS and 10% DMSO.
Then, 2 × 10^4 total PBMC per well (96-well plate) was cultured with or without the HVEM (14–39) peptide at 5 or 0.1 mg/mL in RPMI 1640 supplemented with 10% FCS, 1% penicillin-streptomycin, and 25 mM HEPES. After 6 and 24 h at 37 °C, cells were harvested counted with Trypan blue exclusion. Cells were then labeled with DAPI and analyzed by flow cytometry to determine the percentage of cell death. […]
medium at time points (from the bottom) = 0h, 2h, 3h, 6h and 24h (gradient 5-100%B in 60 […]
Figure S6. 293T cells expressing human BTLA were incubated with different concentrations (0.1, 1 and 5 mg/ml) of peptide HVEM(14-39) prior labeling with rhHVEM-Fc and AF647-conjugated anti-human IgG antibody.
Fig. S7. Cytotoxic assay. PBMC from 3 healthy donors were incubated with HVEM(14-39) peptide at 0, 0.1 and 5 mg/ml in culture medium for 6 and 24h. Cells were subsequently counted and labelled with a dead cell marker. […]

[2] = biological target: T2, BTLA/HVEM binding on 293T cells expressing human BTLA (Homo sapiens, UniProt Q7Z6A9); experiment: BTLA/HVEM interaction cell line assay (HVEM-Fc binding to 293T cells expressing BTLA, flow cytometry); type: cell-based; details: 293T cells expressing human BTLA preincubated with peptide 5 mg/mL, 1 h, 4 °C in PBS, then HVEM-Fc 8 μg/mL and AF647 anti-human IgG
T2 construct: Krummenacher, University of Pennsylvania; host or cells: 293T
T2 sequence (Q7Z6A9 31-289): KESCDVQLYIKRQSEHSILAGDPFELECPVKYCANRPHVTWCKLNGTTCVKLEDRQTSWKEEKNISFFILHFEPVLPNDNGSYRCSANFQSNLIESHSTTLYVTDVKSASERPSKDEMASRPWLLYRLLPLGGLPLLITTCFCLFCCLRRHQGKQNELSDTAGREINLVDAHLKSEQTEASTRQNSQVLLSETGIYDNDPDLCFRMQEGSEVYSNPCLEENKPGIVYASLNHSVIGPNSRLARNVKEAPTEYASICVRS
Experimental: Figure 7 HVEM (14–39) peptide blocks BTLA/HVEM binding. 293T cells expressing human BTLA were incubated with peptides (5 mg/mL) prior to labeling with HVEM-Fc and AF647-conjugated anti-human IgG antibody. The blocking capacity of the HVEM (14–39) peptide was first compared to (A) a scrambled (Ac-[…]-NH2) peptide or (B) to variant peptides (Table S2).
Cells (293T) expressing BTLA (a generous gift from Dr. C. Krummenacher, University of Pennsylvania, USA) were maintained in culture with RPMI 10% FCS supplemented with 0.2 mg/mL hygromycin B. The cells (2 × 10^5) were incubated with HVEM-Fc (at 8 μg/mL in PBS containing 0.5% BSA) for 30 min at 4 °C. The cells were then washed and incubated with goat anti-human Fc conjugated with AF647 for 20 min at 4 °C in PBS containing 0.5% BSA (Jackson ImmunoResearch, #109–606–170). Inhibition of BTLA/HVEM binding by different peptides was assessed after preincubating the cells with different concentrations of the peptide (5, 1, and 0.1 mg/mL) for 1 h at 4 °C in PBS. After washing in PBS, the cells were stained for 20 min at 4 °C with an amine reactive dye (aqua live/dead stain kit, from Life Technologies, L34957) for dead cell exclusion. BTLA expression was controlled by anti-BTLA APC-conjugated antibody (Biolegend, #344510). Maximum inhibition of binding was determined by adding anti-BTLA7.1 antibody (2 μg/mL) for 1 h at 4 °C, before adding HVEM-Fc. Sample acquisition was performed on a Gallios Flow Cytometer (Beckman Coulter), and data were analyzed using FlowJo Software (TreeStar).

[3] = biological target: HVEM 1-103 (Homo sapiens) (UniProt Q92956); experiment: SPR; details: cited from earlier work
Sequence of HVEM 1-103 (Homo sapiens) (Q92956 1-103): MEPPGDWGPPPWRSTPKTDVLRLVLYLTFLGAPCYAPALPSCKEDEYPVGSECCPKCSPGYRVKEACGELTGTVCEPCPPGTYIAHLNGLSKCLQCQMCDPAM

BTLA = details: SPR, HVEM protein binding to BTLA; unit not given; cited from earlier work
Description: Table 1 Rate constants: k1, k−1 and KD for the BTLA/HVEM and BTLA/HVEM (14–39) complexes determined using SPR and molecular dynamics simulation. […] SPR provided more accurate data. […] KD and affinity are inversely related, which means that the lower the KD value, the higher the affinity of the molecules. The HVEM (14–39) peptide binds and d ...

[4] = biological target: T3, Recombinant human BTLA-Fc (human, UniProt Q7Z6A9 31-157); experiment: affinity chromatography on a microcolumn, fractions read by MALDI-TOF MS; BTLA-Fc immobilised in a microcolumn; peptide incubated, excess removed, complex dissociated; supernatant, last wash and elution analysed by mass spectrometry; details: both partners purified
T3 construct: also called BTLA-Fc protein; immobilized BTLA protein; source: gift from Prof; D. Olive (recombinant)
T3 sequence (looked up): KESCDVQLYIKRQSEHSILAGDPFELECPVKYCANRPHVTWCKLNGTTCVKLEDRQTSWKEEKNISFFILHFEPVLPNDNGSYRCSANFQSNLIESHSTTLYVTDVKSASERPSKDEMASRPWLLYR

Question: Which “toxicity on 293T cells” value (293T cells) does the source give for `CC(=O)N[C@@H](CCC(=O)O)C(=O)N[C@@H](CO)C(=O)N[C@H]1CSSC[C@@H]2NC(=O)[C@H](C)NC(=O)[C@H](CCC(=O)O)NC(=O)[C@H](CCCCN)NC(=O)[C@H](C(C)C)NC(=O)[C@H](CCCNC(=N)N)NC(=O)[C@H](Cc3ccc(O)cc3)NC(=O)CNC(=O)[C@@H]3CCCN3C(=O)[C@H](CO)NC(=O)[C@H](CSSC[C@@H](C(=O)N[C@@H](CCC(=O)O)C(=O)N3CCC[C@H]3C(N)=O)NC(=O)[C@H](C(C)C)NC(=O)[C@H]([C@@H](C)O)NC(=O)CNC(=O)[C@H]([C@@H](C)O)NC(=O)[C@H](CC(C)C)NC(=O)[C@H](CCC(=O)O)NC(=O)CNC2=O)NC(=O)[C@H](CCCCN)NC(=O)[C@@H]2CCCN2C1=O` [HVEM (14–39)] (Ac-ESCPKCSPGYRVKEACGELTGTVCEP-NH2; disulfide 3-16, 6-24) here?
Answer: did not observe any toxicity

Question: And the kon (BTLA protein; SPR Biacore T200, peptide extended by five Gly and biotin at N-terminus on streptavidin chip SA (~1100 RU), BTLA 0-15 µM, HBS-EP pH 7.4, mean of four measurements, read-out: k1, association rate constant)?
Answer: 76400 M⁻¹ s⁻¹

Question: And the Kd (BTLA protein; SPR, Table S1 measurement No 1)?
Answer: 13 nM

Question: And the Kd (BTLA protein; SPR, Table S1 measurement No 2)?
Answer: 149 nM

Question: And the Kd (BTLA protein; SPR, Table S1 measurement No 3)?
Answer: 217 nM

Question: What about the Kd (BTLA protein; SPR, Table S1 measurement No 4) of the same molecule?
Answer: 30.6 nM

Question: What about the Kd (BTLA protein; SPR, biotin-Gly5 peptide on streptavidin chip, BTLA 0-15 µM, HBS-EP pH 7.4, mean of four measurements) of the same molecule?
Answer: 102 nM

Question: And the koff (BTLA protein; SPR, biotin-Gly5 peptide on streptavidin chip, BTLA 0-15 µM, HBS-EP pH 7.4, mean of four measurements, read-out: k−1, dissociation rate constant)?
Answer: 0.00332 s⁻¹

Question: What about the “cell death of PBMC” value [1] of the same molecule?
Answer: did not find any significant increase in cell death

Question: Which “blocking of HVEM-Fc binding to BTLA (geometric fluorescence intensity, GMFI)” value (from here on “blocking of HVEM-Fc binding to BTLA”) [2] does the source give for `CC(=O)N[C@@H](CCC(=O)O)C(=O)N[C@@H](CO)C(=O)N[C@H]1CSSC[C@@H](C(=O)N[C@@H](CO)C(=O)N2CCC[C@H]2C(=O)NCC(=O)N[C@@H](Cc2ccc(O)cc2)C(=O)N[C@@H](CCCNC(=N)N)C(=O)N[C@H](C(=O)N[C@@H](CCCCN)C(=O)N[C@@H](CCC(=O)O)C(=O)N[C@@H](C)C(=O)N[C@H]2CSSC[C@@H](C(=O)N[C@@H](CCC(=O)O)C(=O)N3CCC[C@H]3C(N)=O)NC(=O)[C@H](C(C)C)NC(=O)[C@H]([C@@H](C)O)NC(=O)CNC(=O)[C@H]([C@@H](C)O)NC(=O)[C@H](CC(C)C)NC(=O)[C@H](CCC(=O)O)NC(=O)CNC2=O)C(C)C)NC(=O)[C@H](CCCCN)NC(=O)[C@@H]2CCCN2C1=O` [HVEM (14–39)^C16–C19, ^C29–C37] (Ac-ESCPKCSPGYRVKEACGELTGTVCEP-NH2; disulfide 3-6, 16-24) here?
Answer: slight decrease in the blocking capacity

Question: With `CC(=O)N[C@@H](CCC(=O)O)C(=O)N[C@@H](CO)C(=O)N[C@H]1CSSC[C@@H](C(=O)N[C@@H](CCC(=O)O)C(=O)N2CCC[C@H]2C(N)=O)NC(=O)[C@H](C(C)C)NC(=O)[C@H]([C@@H](C)O)NC(=O)CNC(=O)[C@H]([C@@H](C)O)NC(=O)[C@H](CC(C)C)NC(=O)[C@H](CCC(=O)O)NC(=O)CNC(=O)[C@@H]2CSSC[C@H](NC(=O)[C@H](CCCCN)NC(=O)[C@@H]3CCCN3C1=O)C(=O)N[C@@H](CO)C(=O)N1CCC[C@H]1C(=O)NCC(=O)N[C@@H](Cc1ccc(O)cc1)C(=O)N[C@@H](CCCNC(=N)N)C(=O)N[C@@H](C(C)C)C(=O)N[C@@H](CCCCN)C(=O)N[C@@H](CCC(=O)O)C(=O)N[C@@H](C)C(=O)N2` [HVEM (14–39)^C16–C37, ^C19–C29] (Ac-ESCPKCSPGYRVKEACGELTGTVCEP-NH2; disulfide 3-24, 6-16) as the molecule, how does the “blocking of HVEM-Fc binding to BTLA” value [2] read?
Answer: slight decrease in the blocking capacity

Question: For “Ac-ESSPKSSPGYRVKEASGELTGTVSEP-NH2 [HVEM (14–39)^C16,19,29,37S]”, which “blocking of HVEM-Fc binding to BTLA” value [2] is on record?
Answer: blocking capacity was completely lost

Question: Which Kd [3] does the source give for BTLA (from UniProt Q7Z6A9) here?
Answer: 250 nM

B1: HVEM: herpes virus entry mediator, transmembrane glycoprotein of the TNFR superfamily, ligand of BTLA (protein)
chain: LPSCKEDEYPVGSECCPKCSPGYRVKEACGELTGTVCEPCPPGTYIAHLNGLSKCLQCQMCDPAMGLRASRNCSRTENAVCGCSPGHFCIVQDGDHCAACRAYATSSPGQRVQKGGTESQDTLCQNCPPGTFSPNGTLEECQHQTKCSWLVTKAGAGTSSSHWV
modifications: left off: Fc (detected with anti-human Fc/IgG), end not stated, kept
notes: herpes virus entry mediator, transmembrane glycoprotein of the TNFR superfamily, ligand of BTLA
Question: Which “k−1” value (BTLA) does the source give for B1 here?
Answer: 0.12

B2: HVEM (14–39) peptide (peptide, UniProt Q92956 52-77, looked up)
peptide: Ac-ESCPKCSPGYRVKEACGELTGTVCEP-NH2
modifications: disulfide 3-16, 6-24
notes: herpes virus entry mediator (HVEM), residues 14-39 of the numbering of the crystal structure PDB 2AW2, Cys15 replaced by serine; A C-terminal amide is likely (the scrambled peptide is printed as Ac-...-NH2); also called native HVEM (14–39) peptide; native peptide; source: synthetic peptide (solid-phase, Fmoc/tBu, RP-HPLC purified, disulfides formed stepwise)
Question: Does B2 bind [4]?
Answer: binds
